According to patent publication US20020081596A1, “Compositions and methods for the identification, assessment, prevention, and therapy of human cancers” (priority 2000, published 2002):

How the values were obtained:
tumor = conditions: animal models; cited from earlier work
ACHN = conditions: renal, TAXOL resistant cell line; cited from earlier work
SK-MEL-28 = conditions: SK-MEL-28, melanoma, TAXOL resistant cell line; cited from earlier work
SK-MEL-2 = conditions: SK-MEL-2, melanoma, TAXOL sensitive cell line; cited from earlier work
HT-29 = conditions: HT-29, colon, TAXOL sensitive cell line; cited from earlier work
T-47D = conditions: breast, TAXOL resistant cell line; cited from earlier work
SN12C = conditions: renal, TAXOL sensitive cell line; cited from earlier work
OVCAR-3 = conditions: OVCAR-3, ovarian, TAXOL sensitive cell line; cited from earlier work
OVCAR-4 = conditions: OVCAR-4, ovarian, TAXOL resistant cell line; cited from earlier work
MDA-MB-435 = conditions: MDA-MB-435, breast, TAXOL sensitive cell line; cited from earlier work
HCT-15 = conditions: HCT-15, colon, TAXOL resistant cell line; cited from earlier work
[1] = tested on: TAXOL sensitive cancer cell lines; assay: Growth inhibition (GI50) by TAXOL, mean of nine sensitive cell lines; assay type: cell-based, human; conditions: mean of the nine TAXOL sensitive cell lines of Table C
Experimental: (§1) One group of nine cell lines was determined to be sensitive to TAXOL (Table C), the other group of nine cell lines was determined to be resistant to TAXOL (Table B). Sensitivity to TAXOL was based of known GI50 values for these cells, which for this study was defined as the concentration of TAXOL required to inhibit growth of the cell line by 50%. More precisely, the quantity used in the calculation is the potency measure −log{GI50}. Pooled RNA from TAXOL sensitive cancer cell lines was used as tester against driver RNA pooled from TAXOL resistant cancer cell lines. Pooled RNA from TAXOL resistant cancer cell lines was used as tester against driver RNA pooled from TAXOL sensitive cancer cell lines.

NCl-H522 = conditions: NCl-H522, non-small cell lung carcinoma, TAXOL sensitive cell line; cited from earlier work
MCF-7/AdrRes = conditions: breast, TAXOL resistant cell line; cited from earlier work
HOP-92 = conditions: HOP-92, non-small cell lung carcinoma, TAXOL resistant cell line; cited from earlier work
SK-MEL-5 = conditions: SK-MEL-5, melanoma, TAXOL sensitive cell line; cited from earlier work
MALME-3M = conditions: melanoma, TAXOL resistant cell line; cited from earlier work
NCl-H460 = conditions: NCl-H460, non-small cell lung carcinoma, TAXOL sensitive cell line; cited from earlier work
MCF-7 = conditions: MCF-7, breast, TAXOL sensitive cell line; cited from earlier work
[2] = tested on: TAXOL resistant cancer cell lines; assay: Growth inhibition (GI50) by TAXOL, mean of nine resistant cell lines; assay type: cell-based, human; conditions: mean of the nine TAXOL resistant cell lines of Table B
Experimental: as §1

EKVX = conditions: non-small cell lung carcinoma, TAXOL resistant cell line; cited from earlier work

CC(=O)O[C@@]12CO[C@@H]1C[C@H](O)[C@@]1(C)C(=O)[C@H](O)C3=C(C)[C@@H](OC(=O)[C@H](O)[C@@H](NC(=O)OC(C)(C)C)c4ccccc4)C[C@@](O)([C@@H](OC(=O)c4ccccc4)[C@H]21)C3(C)C [Taxotere, docetaxel]
anti-tumor activity (tumor): good anti-tumor activity

CC(=O)O[C@H]1C(=O)[C@@]2(C)[C@H]([C@H](OC(=O)c3ccccc3)[C@]3(O)C[C@H](OC(=O)[C@H](O)[C@@H](NC(=O)c4ccccc4)c4ccccc4)C(C)=C1C3(C)C)[C@]1(OC(C)=O)CO[C@@H]1C[C@@H]2O [TAXOL]
Log Gl 50 for TAXOL (ACHN): −5.8 | Log Gl 50 for TAXOL (SK-MEL-28): −7.1 | Log GI 50 for TAXOL (SK-MEL-2): −8.3 | Log GI 50 for TAXOL (HT-29): −8.6 | Log Gl 50 for TAXOL (T-47D): −6.9 | Log GI 50 for TAXOL (SN12C): −8.5 | Log GI 50 for TAXOL (OVCAR-3): −8.5 | Log Gl 50 for TAXOL (OVCAR-4): −6.3 | Log GI 50 for TAXOL (MDA-MB-435): −8.6 | Log Gl 50 for TAXOL (HCT-15): −6.7 | Log GI 50 for TAXOL (Mean) [1]: −8.5 | Log GI 50 for TAXOL (NCl-H522): −8.5 | Log Gl 50 for TAXOL (MCF-7/AdrRes): −5.5 | Log Gl 50 for TAXOL (HOP-92): −7.2 | Log GI 50 for TAXOL (SK-MEL-5): −8.4 | Log Gl 50 for TAXOL (MALME-3M): −6.8 | Log GI 50 for TAXOL (NCl-H460): −8.5 | Log GI 50 for TAXOL (MCF-7): −8.5 | Log Gl 50 for TAXOL (Mean) [2]: −6.5 | Log Gl 50 for TAXOL (EKVX): −6.6
